Source: patent US9174946B2, “Selective FAK inhibitors” (priority 2011, dated 2015)

Test system: HeyA8, SKOV3ip1, and HeyA8-MDR models
Details: concomitant administration of TAE226 and docetaxel, all three models; cited from earlier work

Row | SMILES | reduction of tumour burden
1 | CNC(=O)c1ccccc1Nc1nc(Nc2ccc(N3CCOCC3)cc2OC)ncc1Cl [TAE226] | 85-97%

Biological target: T1, Y397-FAK phosphorylation (Homo sapiens, UniProt Q05397)
T1 construct: endogenous in cells; host or cells: MDA-231-LNA cells
Type: cell-based
Details: not given

T1 sequence (Q05397 whole entry): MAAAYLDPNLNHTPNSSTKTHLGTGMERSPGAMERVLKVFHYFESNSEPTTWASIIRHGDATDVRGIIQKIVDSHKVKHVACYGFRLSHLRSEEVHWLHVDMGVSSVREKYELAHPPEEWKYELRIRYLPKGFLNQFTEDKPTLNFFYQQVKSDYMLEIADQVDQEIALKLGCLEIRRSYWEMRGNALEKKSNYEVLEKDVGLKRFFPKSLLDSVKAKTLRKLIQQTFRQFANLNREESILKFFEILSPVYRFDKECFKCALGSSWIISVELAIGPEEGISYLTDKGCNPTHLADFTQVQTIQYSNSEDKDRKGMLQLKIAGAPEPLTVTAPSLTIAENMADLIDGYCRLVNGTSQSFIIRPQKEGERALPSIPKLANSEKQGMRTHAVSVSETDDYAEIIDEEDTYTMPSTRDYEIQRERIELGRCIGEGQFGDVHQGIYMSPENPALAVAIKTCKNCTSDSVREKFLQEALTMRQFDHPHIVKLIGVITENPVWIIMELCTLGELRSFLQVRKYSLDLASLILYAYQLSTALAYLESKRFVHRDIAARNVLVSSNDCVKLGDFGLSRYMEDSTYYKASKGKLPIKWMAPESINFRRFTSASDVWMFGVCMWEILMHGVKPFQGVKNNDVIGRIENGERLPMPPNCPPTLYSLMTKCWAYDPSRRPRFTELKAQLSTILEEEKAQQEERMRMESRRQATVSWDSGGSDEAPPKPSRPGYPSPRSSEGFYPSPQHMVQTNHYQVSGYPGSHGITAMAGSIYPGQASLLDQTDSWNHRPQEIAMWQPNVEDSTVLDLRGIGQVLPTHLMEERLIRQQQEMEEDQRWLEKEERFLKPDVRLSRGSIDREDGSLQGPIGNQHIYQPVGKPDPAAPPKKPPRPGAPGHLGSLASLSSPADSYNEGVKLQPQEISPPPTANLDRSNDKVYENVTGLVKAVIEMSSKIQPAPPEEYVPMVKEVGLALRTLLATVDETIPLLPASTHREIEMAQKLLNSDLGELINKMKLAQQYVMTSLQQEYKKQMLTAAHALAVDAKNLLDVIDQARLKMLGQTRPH

Row | % response of control at 2 μM [%] | SMILES
2 | 116 | NC(=O)Cc1ccccc1CCc1nc(Nc2ccc(C3CCNCC3)cc2OC(F)(F)F)ncc1C(F)(F)F [Compound 10, 2-(2-(2-(2-((4-(Piperidin-4-yl)-2-(trifluoromethoxy)phenyl)amino)-5-(trifluoromethyl)pyrimidin-4yl)ethyl)phenyl)acetamide]
3 | 80 | COc1cc(C2CCN(C)CC2)ccc1Nc1ncc(C(F)(F)F)c(CCc2cccc(C(N)=O)c2)n1 [Compound 6, 3-(2-(2-((2-Methoxy-4-(1-methylpiperidin-4-yl)phenyl)amino)-5-(trifluoromethyl)pyrimidin-4-yl)ethyl)benzamide]
4 | 91 | COc1cc(C2CCNCC2)ccc1Nc1ncc(C(F)(F)F)c(CCc2ccccc2CC(N)=O)n1 [Compound 2, 2-(2-(2-(2-((2-Methoxy-4-(piperidin-4-yl)phenyl)amino)-5-(trifluoromethyl)pyrimidin-4-yl)ethyl)phenyl)acetamide]
5 | 117 | CN1CCC(c2ccc(Nc3ncc(C(F)(F)F)c(CCc4ccccc4CC(N)=O)n3)c(OC(F)(F)F)c2)CC1 [Compound 11, 2-(2-(2-(2-((4-(1-Methylpiperidin-4-yl)-2-(trifluoromethoxy)phenyl)amino)-5-(trifluoromethyl)pyrimidin-4-yl)ethyl)phenyl)acetamide]
6 | 108 | CCN1CCC(c2ccc(Nc3ncc(C(F)(F)F)c(CCc4ccccc4CC(N)=O)n3)c(OC)c2)CC1 [Compound 4, 2-(2-(2-(2-((4-(1-Ethylpiperidin-4-yl)-2-methoxyphenyl)amino)-5-(trifluoromethyl)pyrimidin-4-yl)ethyl)phenyl)acetamide]
7 | 90 | CN1CCC(c2ccc(Nc3ncc(C(F)(F)F)c(CCc4ccccc4CC(N)=O)n3)c(F)c2)CC1 [Compound 13, 2-(2-(2-(2-((2-Fluoro-4-(1-methylpiperidin-4-yl)phenyl)amino)-5-(trifluoromethyl)pyrimidin-4-yl)ethyl)phenyl)acetamide]

Row | SMILES | % response of control at 2 μM [%]
8 | COc1cc(C2CCN(C)CC2)ccc1Nc1ncc(C(F)(F)F)c(CCc2ccccc2CC(N)=O)n1 [Compound 3, 2-(2-(2-(2-((2-Methoxy-4-(1-methylpiperidin-4-yl)phenyl)amino)-5-(trifluoromethyl)pyrimidin-4-yl)ethyl)phenyl)acetamide] | 102

Same assay, conditions: MDA-231-LNA cells; relative to control compound at 2 μM

Row | % response of control at 2 μM [%] | SMILES
9 | 122 | COc1cc(N2CCNCC2)ccc1Nc1ncc(C(F)(F)F)c(CCc2ccccc2CC(N)=O)n1 [Compound 1, 2-(2-(2-(2-((2-Methoxy-4-(piperazin-1-yl)phenyl)amino)-5-(trifluoromethyl)pyrimidin-4-yl)ethyl)phenyl)acetamide]
